The source of these data is US12102685B2, “Immodulator peptides covalently modified with small molecules” (priority 2020, dated 2024).

One assay has as its system A375 cells. In words: A375 cell viability, CellTiterGlo (x10A). In kind it is cell-based. The note with it: peptide 2 uM, Buffer, 72 hours. As for the experimental part:
Immune modulation functions of immodulator peptides have great potential untility in the field of cancer. A375 cell line was obtained from American Type Culture Collection (ATCC). They were grown in a T-75 flask in DMEM Medium containing 10% fetal bovine serum and penicillin-streptomycin at 37° C. in a humidified, 5% CO2 incubator. Cells ([…], 2,000 cells/well) were plated in a 96-well plate and incubated overnight at 37° C. in a humidified, 5% CO2 incubator. Next day, […] of compounds were added (quadruplicate wells). After 72 hour incubation with the compound, cell viability was measured in a luminometer after the addition of […] CellTiterGlo reagent (Promega Inc, Madison, WI) as recommended by the manufacturer.
Experiment x10A. Anti-cancer activity of immodulator peptides on A375 cells. A 96-well plate was seeded with 2,000 A375 cells per well in DMEM medium containing 10% FBS and PenStrep. After 24 hrs at 37 deg C., compounds and peptides were added (each treatment done in quadruplicate). After a further 72 hours incubation, 100 uL/well of CTG assay reagent purchased from Promega Inc. (Madison, WI) was added. Plate was read after 10 minutes, as recommended by the manufacturer. Peptides were added at 2 uM. The results of this experiment are shown below, expressed as percent survival ofA375 cells.
A general note: In ATP-based viability assays light output follows the ATP content of the culture.

The nature of assay [1]: Binding to Echelon PPI Arrays (x9B). Set-up: key: 0=no binding; 1=low binding; 2=medium binding; 3=high binding. The note with it: 100 pmol PPI spot, colorimetric readout. The text has this: Binding of immodulator peptides to Echelon PPI Arrays. PPI arrays were purchased from Echelon Biosciences (Sal Lake City, UT) and used according to the manufacturer's recommendations. Colorimetric readout from each 100 pmol PPI spot in the array is expressed as 0=no binding, 1=low binding, 2=medium binding and 3=high binding. […] In addition, IM3 and IM5 show slight binding to PI(3,4,5)P3.

Assay [2] is described as follows: FITC-PI(4)P1 binding to plate-bound peptide with calcium (x9A). On the procedure:
Immodulator peptides IM1, IM3 and IM5 (400 ng/well) in PBS were bound to streptavidin-coated 96-well plates at room temperature for 60 minutes, in the presence or absence of 500 uM calcium chloride. Each well also received 200 ng cold PPI plus 10 ng FITC-labeled PI(4,5)P2 or PI(4)P1. The tables below show the relative fluorescence (with/without calcium background) expressed as a percentage of the highest binder, FITC-PI(4,5)P2+cold PI(3,5)P2, which was 2,496 fluorescence units. Background binding without calcium was, in all cases, 200-300 fluorescence units.

The target in assay [3] is T1, AA111-228 DNA-binding domain of RXR-alpha (RXRa-DBD) (Homo sapiens, UniProt P19793).
T1 construct: purchased Abcam, Cambridge, MA
T1 sequence (P19793 111-228): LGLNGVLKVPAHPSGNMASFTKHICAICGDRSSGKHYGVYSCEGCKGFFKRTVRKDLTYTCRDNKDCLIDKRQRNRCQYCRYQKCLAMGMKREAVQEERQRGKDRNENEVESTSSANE
In words: Binding to RXRa-DBD (x3A). As to conditions: 1 ug/well RXRa-DBD, 800 ng/well SA488-labelled peptide; background subtracted. On the procedure: Binding of immodulator peptides to AA111-228 DNA-binding domain of RXR-alpha (RXRa-DBD). 1 ug/well recombinant RXRa-DBD (Abcam, Cambridge, MA) was adsorbed to wells of a 96-well plate for 60 minutes at RT, then blocked with 200 uL 1% BSA in PBS buffer overnight. Plate was washed and 800 ng/well Streptavidin-Alexa 488 conjugate (SA488)-labelled IM peptide was added. The plate was incubated for 60 min at room temperature, washed and counted in a standard fluorometer (excitation/emission 485/525 nm). Background (buffer alone) was subtracted.

The nature of assay [4]: Strength of binding to iron, plate assay (x2E b). The note with it: 1 ug/well peptide complexed to Alexa-488-streptavidin; ferric iron. On the procedure:
Immodulator peptides were extended C-terminally by three amino acids, to include a valine residue that is highly conserved in the “thyroglobulin type 1 motif”. The reasoning behind this attempt is that a longer conserved sequence might lead to a tighter fold overall, which might in turn result in increased metal-binding avidity. • (b) Strength of binding to iron was evaluated by plate assay.
(§1) Experiments were conducted by the procedure described above. Ferric iron-charged NTA-coated 96-well plates were used as described. 1 ug/well immodulator peptide complexed to Alexa-488-labeled streptavidin in PBS buffer was added (60 min at room temperature). The plate was washed and counted in a standard fluorometer (excitation/emission: 485/525 nm). The results (fluorescence) show improved iron-binding by the three peptides extended C-terminally by the AVD, (dA)VD, and FVS tripeptides. **p<0.01 vs IM3 control IM3: 200±29; IM4: 45±37**; IM5: 130±77; IM3AVD: 434±29**; IM3dAVD: 418±28**; IM3FVS: 371±33** • (c) Competition assay. The same procedure was used as the preceding experiment, except that 375 ng/well labeled IM3 peptide was used, plus 10× of the indicated unlabeled peptide. ‘No competing peptide’ control value was set to 100. *p<0.05 vs “no peptide” control Competing Peptide/Fluorescence • None: 100±38; IM4: 125±26; IM3: 63±27*; IM5: 40±14*; IM3AVD: 10±28* • (d) Competition assay. The same procedure was used as the preceding experiment, except that labeled IM3AVD peptide was used. **p<0.01 vs “no competing peptide” control • None: 100±9; IM4: 144±44; IM3: 35±16**; IM5: 30±19**; IM3AVD: 9±19** • (e) The same procedure was used as the preceding experiment, except that each peptide was labeled with Alexa-488-labeled streptavidin in PBS buffer and used separately. Binding to IM3 was set to =100. *p<0.05, **p<0.01 vs IM3 control. (Labeled Peptide/Fluorescence) IM1: 1.8±0.4**; IM2: 3.0±1.8**; IM3: 100.0±16.8; IM4: 7.2±1.7*; IM5: 86.7±6.4; IM6: 85.9±14.9; IM3AVD:137.7±11.8*; IM3dAVD:147.4±22.9*; IM3FVS: 101.5±10.5.

The nature of assay [5]: Iron-binding competition assay with labeled IM3AVD (x2E d). The note with it: labeled IM3AVD plus 10x unlabeled peptide; no competing peptide = 100. As for the experimental part:
as §1

A short description of assay [6]: Iron-binding competition assay with labeled IM3 (x2E c). The note with it: 375 ng/well labeled IM3 plus 10x unlabeled peptide; no competing peptide = 100. On the procedure:
as §1

Molecules are shown by their SMILES. Peptide text beside a SMILES is read from it.

Turning to `CSCC[C@H](NC(=O)[C@H](CO)NC(=O)[C@@H](NC(=O)[C@H](CCC(=O)O)NC(=O)[C@H](CS)NC(=O)[C@H](CCC(N)=O)NC(=O)[C@H](CCCNC(=N)N)NC(=O)[C@H](CO)NC(=O)[C@H](Cc1c[nH]cn1)NC(=O)[C@H](Cc1ccc(O)cc1)NC(=O)[C@H](Cc1ccccc1)NC(=O)CNC(=O)[C@H](CC(N)=O)NC(=O)[C@@H](N)CCCCN)[C@@H](C)O)C(=O)N[C@@H](CC(=O)O)C(=O)NCC(=O)N[C@@H](CCC(=O)O)C(=O)N[C@@H](C)C(=O)NCC(=O)N[C@@H](CC(C)C)C(=O)N[C@@H](CS)C(=O)N[C@@H](Cc1c[nH]c2ccccc12)C(=O)O` [IM1] (H-KNGFYHSRQCETSMDGEAGLCW-OH; N-terminus and C-terminus assumed), the “percent survival of A375 cells” value in the assay on A375 cells turned out to be 102.1%. Also, the “binding to PI spot” value in assay [1] is listed as 0. For the same compound, the “binding to PI(3,4,5)P3 spot” value in assay [1] amounted to 0. The “binding to PI(4)P1 spot” value in assay [1] is recorded as 0. The “binding to PI(4,5)P2 spot” value in assay [1] is recorded as 0. Moreover, the “relative fluorescence, FITC-PI(4)P1 bound” value in assay [2] (cold PPI: 3,4,5-P3) was 0.1 percentage of the highest binder; in assay [2] (cold PPI: 3,4-P2), 2.6 percentage of the highest binder; in assay [2] (cold PPI: 3,5-P2), 4.3 percentage of the highest binder; in assay [2] (cold PPI: 3-P1), 3.1 percentage of the highest binder; in assay [2] (cold PPI: 4,5-P2), 0.8 percentage of the highest binder; in assay [2] (cold PPI: 4-P1), 2.7 percentage of the highest binder. The “relative fluorescence, FITC-PI(4)P1 bound” value in assay [2] (cold PPI: 5-P1) is on record as 0.5 percentage of the highest binder; in assay [2] (cold PPI: None) it was 1.6 percentage of the highest binder. In assay [3], this compound gave a fluorescence of 670±85.

On to `CC[C@H](C)[C@H](NC(=O)CNC(=O)[C@H](CCCNC(=N)N)NC(=O)[C@H](CCCCN)NC(=O)[C@H](CCCNC(=N)N)NC(=O)CNC(=O)[C@H](CCCNC(=N)N)NC(=O)[C@H](CO)NC(=O)[C@@H]1CCCN1C(=O)[C@H](CCCCN)NC(=O)[C@H](CS)NC(=O)[C@H](CCC(N)=O)NC(=O)[C@H](CCCCN)NC(=O)[C@H](CCCNC(=N)N)NC(=O)[C@H](CCCCN)NC(=O)[C@H](Cc1ccc(O)cc1)NC(=O)[C@H](Cc1ccccc1)NC(=O)CNC(=O)[C@H](CCCCN)NC(=O)[C@@H](N)CCCNC(=N)N)C(=O)N[C@@H](CS)C(=O)N[C@@H](Cc1c[nH]c2ccccc12)C(=O)O` [IM5] (H-RKGFYKRKQCKPSRGRKRGICW-OH; N-terminus and C-terminus assumed), for which the “binding to PI spot” value in assay [1] stood at 0. The “binding to PI(3,4,5)P3 spot” value in assay [1] is given as 1. Moreover, the “binding to PI(4)P1 spot” value in assay [1] is on record as 2. In addition, in assay [1], the “binding to PI(4,5)P2 spot” value came to 3. Further, the “relative fluorescence, FITC-PI(4)P1 bound” value was 1.2 percentage of the highest binder in assay [2] (cold PPI: 3,4,5-P3); 1.7 percentage of the highest binder in assay [2] (cold PPI: 3,4-P2); 1.3 percentage of the highest binder in assay [2] (cold PPI: 3,5-P2); 0.9 percentage of the highest binder in assay [2] (cold PPI: 3-P1); 1.8 percentage of the highest binder in assay [2] (cold PPI: 4,5-P2); 0.8 percentage of the highest binder in assay [2] (cold PPI: 4-P1). The results for the “relative fluorescence, FITC-PI(4)P1 bound” value in assay [2] (cold PPI: 5-P1) and in assay [2] (cold PPI: None) were 0.4 percentage of the highest binder and 2.1 percentage of the highest binder, respectively. Moreover, in assay [3], the fluorescence was 6,802±336. Besides, the “fluorescence (iron binding)” value in assay [4] was 130±77. In assay [5], the “fluorescence of labeled IM3AVD with competing peptide” value came to 30±19. Besides, the “fluorescence of labeled IM3 with competing peptide” value in assay [6] was determined as 40±14.

Turning to `CC(C)C[C@H](NC(=O)[C@H](C)NC(=O)[C@@H]1CCCN1C(=O)[C@H](Cc1c[nH]cn1)NC(=O)[C@H](CS)NC(=O)[C@H](CCC(N)=O)NC(=O)[C@H](CCCCN)NC(=O)[C@@H]1CCCN1C(=O)[C@H](Cc1c[nH]cn1)NC(=O)[C@H](Cc1ccccc1)NC(=O)[C@H](CC(N)=O)NC(=O)CNC(=O)[C@H](CC(N)=O)NC(=O)[C@@H](N)CCCNC(=N)N)C(=O)N[C@@H](CC(=O)O)C(=O)NCC(=O)N[C@@H](CCC(N)=O)C(=O)N[C@@H](CCCNC(=N)N)C(=O)NCC(=O)N[C@@H](CCCCN)C(=O)N[C@@H](CS)C(=O)N[C@@H](Cc1c[nH]c2ccccc12)C(=O)O` [IM4] (H-RNGNFHPKQCHPALDGQRGKCW-OH; N-terminus and C-terminus assumed), the “percent survival of A375 cells” value with A375 cells stood at 98.8%. For the same compound, in assay [1], the “binding to PI spot” value is recorded as 0, the “binding to PI(3,4,5)P3 spot” value was 0, the “binding to PI(4)P1 spot” value is listed as 0 and the “binding to PI(4,5)P2 spot” value is 0. Also, in assay [3], the fluorescence is recorded as 27±31. The “fluorescence (iron binding)” value in assay [4] was 45±37. Further, in assay [5], the “fluorescence of labeled IM3AVD with competing peptide” value was found to be 144±44. Moreover, the “fluorescence of labeled IM3 with competing peptide” value in assay [6] is recorded as 125±26.

Turning to `CSCC[C@H](NC(=O)[C@H](CCCCN)NC(=O)[C@H](CS)NC(=O)[C@H](CCC(N)=O)NC(=O)[C@H](CCCCN)NC(=O)[C@H](CC(C)C)NC(=O)[C@H](CC(N)=O)NC(=O)[C@H](Cc1ccc(O)cc1)NC(=O)[C@H](CC(C)C)NC(=O)CNC(=O)[C@H](Cc1c[nH]cn1)NC(=O)[C@@H](N)CCCCN)C(=O)N[C@@H](CO)C(=O)N[C@@H](CC(C)C)C(=O)N[C@@H](CC(N)=O)C(=O)NCC(=O)N[C@@H](CCC(N)=O)C(=O)N[C@@H](CCCNC(=N)N)C(=O)NCC(=O)N[C@@H](CCC(=O)O)C(=O)N[C@@H](CS)C(=O)N[C@@H](Cc1c[nH]c2ccccc12)C(=O)O` [IM2], the “percent survival of A375 cells” value in the assay with A375 cells stood at 99.0%. For the same compound, in assay [1], the “binding to PI spot” value is on record as 0, the “binding to PI(3,4,5)P3 spot” value is given as 0, the “binding to PI(4)P1 spot” value was found to be 0 and the “binding to PI(4,5)P2 spot” value was found to be 0. The same compound had a fluorescence in assay [3] of 2±38.
